Experimental data taken from article PMC4216204 (Journal of Medicinal Chemistry, 2014).

Tests used:
[1] = test system: CRL-2351 breast cancer cells; test: Sulforhodamine B; type: cell-based; conditions: Homo sapiens, 120 h, read-out: SRB assay IC50 CRL-2351
xenograft tumor = conditions: mouse model of human cancer; cited from earlier work
AML progenitors = conditions: ref 23 (Tamburini et al.); cited from earlier work

| Structure (SMILES) | IC50 [1] [µM] | inhibition of xenograft tumor growth (xenograft tumor) | clonogenic growth of AML progenitors (AML progenitors) |
| --- | --- | --- | --- |
| COc1cc2c(cc1OC)-c1nc(N/N=C(\Cc3ccccc3[N+](=O)[O-])C(=O)O)sc1CO2 [(E)-46a, 2-(2-(7,8-Dimethoxy-4H-chromeno[4,3-d]thiazol-2-yl)hydrazono)-3-(2-nitrophenyl)propanoic Acid] | > 20 |  |  |
| COc1ccc2c(c1OC)OCc1sc(N/N=C(\Cc3ccccc3[N+](=O)[O-])C(=O)O)nc1-2 [(E)-46b, 2-(2-(6,7-Dimethoxy-4H-chromeno[4,3-d]thiazol-2-yl)hydrazono)-3-(2-nitrophenyl)propanoic Acid] | > 20 |  |  |
| COc1cc2c(cc1OC)-c1nc(N/N=C(\Cc3ccccc3[N+](=O)[O-])C(=O)O)sc1CC2 [(E)-46c, 2-(2-(7,8-Dimethoxy-4,5-dihydronaphtho[1,2-d]thiazol-2-yl)hydrazono)-3-(2-nitrophenyl)propanoic Acid] | > 20 |  |  |
| COc1cc2c(cc1OC)-c1nc(N/N=C(/Cc3ccccc3[N+](=O)[O-])C(=O)O)sc1CO2 [(Z)-46a, 2-(2-(7,8-Dimethoxy-4H-chromeno[4,3-d]thiazol-2-yl)hydrazono)-3-(2-nitrophenyl)propanoic Acid] | > 20 |  |  |
| COc1ccc2c(c1OC)OCc1sc(N/N=C(/Cc3ccccc3[N+](=O)[O-])C(=O)O)nc1-2 [(Z)-46b, 2-(2-(6,7-Dimethoxy-4H-chromeno[4,3-d]thiazol-2-yl)hydrazono)-3-(2-nitrophenyl)propanoic Acid] | > 20 |  |  |
| COc1cc2c(cc1OC)-c1nc(N/N=C(/Cc3ccccc3[N+](=O)[O-])C(=O)O)sc1CC2 [(Z)-46c, 2-(2-(7,8-Dimethoxy-4,5-dihydronaphtho[1,2-d]thiazol-2-yl)hydrazono)-3-(2-nitrophenyl)propanoic Acid] | > 20 |  |  |
| O=C(O)C(Cc1ccccc1[N+](=O)[O-])=NNc1nc(-c2ccc(Cl)c(Cl)c2)cs1 [compound 1, (2-(2-(4-(3,4-dichlorophenyl)thiazol-2-yl)hydrazono)-3-(2-nitrophenyl)propanoic acid)] |  | effectively inhibits xenograft tumor growth | dramatically reduces the clonogenic growth of AML progenitors |
